# From US20220362153A1, “COMPOSITIONS AND METHODS FOR PULMONARY SURFACTANT-BIOMIMETIC NANOPARTICLES” (priority 2019, published 2022)
# System: SH13 H7N9 virus
# Set-up: species or system mice
# Details: mouse, in vivo
substance,measurement,value
poly IC,protection from lethal SH13 H7N9 challenge,did not provide any benefit over the vaccine alone
